Consider eight compounds from PubChem BioAssay (NCI).

Test systems include NCI/ADR-RES ovarian; CCRF-CEM leukemia; HS 578T breast; MOLT-4 leukemia; UO-31 renal; HCT-116 colon; SK-MEL-2 melanoma; A549 NSCLC; CAKI-1 renal; PC-3 prostate.
Common to all, as to assay: NCI-60 cell line screen, 48 h

Several values for one entry are separate records, joined by “and”; a condition that tells them apart may be missing. Equal values may be shown once.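 96-well plates; 48 h exposure; 5 concentrations. Endpoints by linear interpolation between flanking doses. Not reached: highest tested concentration assigned. Here, GI50 denotes the concentration required for 50% inhibition of growth. TGI is the concentration that stops growth completely.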 Bounds are passed on as bounds.

Take `COc1ccc(/C(C)=C(\c2ccc(Cl)cc2)c2ccc(OCCN3CCCCCC3)cc2)cc1F`: the GI50 in the assay with NCI/ADR-RES ovarian is 4 µM; with CCRF-CEM leukemia it was 4.51 µM; with HS 578T breast it was 2.69 µM; with MOLT-4 leukemia, 3.91 µM; in the assay on UO-31 renal it was 2.17 µM; in the assay with HCT-116 colon it was 1.98 µM. Moreover, the GI50 in the assay with SK-MEL-2 melanoma is 5.23 µM; in the assay with A549 NSCLC, 5.27 µM; in the assay with CAKI-1 renal it was 3.37 µM; with PC-3 prostate, 3.8 µM. Besides, the TGI in the assay with NCI/ADR-RES ovarian is 12.4 µM; in the assay on CCRF-CEM leukemia it was over 16.7 µM; in the assay with HS 578T breast, 6.51 µM; with MOLT-4 leukemia, 11.8 µM; in the assay with UO-31 renal it was 4.47 µM; in the assay with HCT-116 colon, 4.51 µM. The TGI in the assay on SK-MEL-2 melanoma is 16.3 µM; in the assay with A549 NSCLC it was over 16.7 µM; in the assay with CAKI-1 renal, 7.7 µM; in the assay on PC-3 prostate it was 15 µM.

`CC1OC(OC2C(O[C@H]3CC[C@@]4(C)C(=CC[C@H]5[C@@H]6C[C@@H]7O[C@]8(CC[C@@H](C)CO8)[C@@H](C)[C@@H]7[C@@]6(C)CC[C@@H]54)C3)OC(CO)C(OC3OC(CO)C(O)C3O)C2O)C(O)C(O)C1O` (some centres not stated): the GI50 with NCI/ADR-RES ovarian is 1.19 µM; in the assay on MOLT-4 leukemia, 0.187 µM; in the assay with HCT-116 colon, 1.26 µM; in the assay with SK-MEL-2 melanoma, 1.46 µM; in the assay on A549 NSCLC, 0.203 µM; in the assay with CAKI-1 renal it was 0.602 µM. The GI50 with PC-3 prostate was 0.533 µM. For the same compound, the TGI in the assay on NCI/ADR-RES ovarian is 1.79 µM and 2.44 µM; with CCRF-CEM leukemia, 0.413 µM; with HS 578T breast, 1.78 µM and 2.24 µM; in the assay with MOLT-4 leukemia, 1.8 µM and 0.412 µM; with UO-31 renal, 1.5 µM; with HCT-116 colon it was 1.6 µM and 2.52 µM. Besides, the TGI is 1.82 µM and 2.78 µM with SK-MEL-2 melanoma; 1.3 µM and 0.367 µM in the assay with A549 NSCLC; 1.76 µM and 1.86 µM in the assay with CAKI-1 renal; 1.48 µM and 1.78 µM in the assay with PC-3 prostate.

`CC1=C(CNO)C2=C(C)C3(CC3)[C@@](C)(O)C(=O)C2=C1`: the GI50 was 2.32 µM in the assay on NCI/ADR-RES ovarian; 6.6 µM in the assay on CCRF-CEM leukemia; 2.7 µM in the assay on HS 578T breast; 3.72 µM in the assay on MOLT-4 leukemia; 1.83 µM in the assay with UO-31 renal; 1.85 µM with HCT-116 colon. In addition, the GI50 in the assay on SK-MEL-2 melanoma is 1.98 µM; in the assay on A549 NSCLC it was 1.17 µM; with CAKI-1 renal it was 1.66 µM; in the assay on PC-3 prostate, 1.91 µM. Besides, the TGI is 7.63 µM with NCI/ADR-RES ovarian; 60.6 µM in the assay with CCRF-CEM leukemia; 9.18 µM in the assay on HS 578T breast; over 100 µM with MOLT-4 leukemia; 5.87 µM in the assay on UO-31 renal; 5.21 µM with HCT-116 colon. Further, the TGI in the assay with SK-MEL-2 melanoma turned out to be 4.91 µM; in the assay with A549 NSCLC, 17.6 µM; in the assay on CAKI-1 renal, 7.07 µM; in the assay on PC-3 prostate it was 19.6 µM.

Turning to `O=c1nc2[nH]c3c(-c4n[nH]c(=O)[nH]c4=O)cccc3c2n[nH]1`, the GI50 in the assay with NCI/ADR-RES ovarian, in the assay on CCRF-CEM leukemia, in the assay on HS 578T breast, in the assay with MOLT-4 leukemia, in the assay with UO-31 renal and with HCT-116 colon was over 100 µM throughout. In addition, the GI50 in the assay on SK-MEL-2 melanoma, in the assay on A549 NSCLC, with CAKI-1 renal and in the assay with PC-3 prostate was over 100 µM throughout. The TGI in the assay on NCI/ADR-RES ovarian, in the assay on CCRF-CEM leukemia, with HS 578T breast, with MOLT-4 leukemia, in the assay with UO-31 renal and in the assay with HCT-116 colon was over 100 µM each time. The TGI with SK-MEL-2 melanoma, in the assay on A549 NSCLC, in the assay on CAKI-1 renal and in the assay with PC-3 prostate was over 100 µM each time.

For the compound `COc1ccc(/C=C\c2cc(OC)c(OC)c(OC)c2)c(NS(=O)(=O)c2ccc(C(C)(C)C)cc2)c1O`, the GI50 in the assay with NCI/ADR-RES ovarian was 0.309 µM; with CCRF-CEM leukemia it was 0.468 µM; in the assay with HS 578T breast, 0.521 µM; with MOLT-4 leukemia, 0.202 µM; in the assay on UO-31 renal, 0.982 µM; in the assay on HCT-116 colon it was 0.365 µM. In addition, the GI50 in the assay with SK-MEL-2 melanoma was 1.22 µM; in the assay on A549 NSCLC, 0.626 µM; in the assay with CAKI-1 renal, 0.0674 µM; in the assay with PC-3 prostate it was 0.369 µM. For the same compound, the TGI in the assay with NCI/ADR-RES ovarian is 19.6 µM; with CCRF-CEM leukemia, 35.8 µM; in the assay on HS 578T breast it was 19.9 µM; with MOLT-4 leukemia, 3.94 µM; in the assay with UO-31 renal it was 21.6 µM; in the assay on HCT-116 colon, 13.6 µM. Further, the TGI in the assay with SK-MEL-2 melanoma stood at 20.2 µM; in the assay with A549 NSCLC, 33 µM; with CAKI-1 renal, 18.7 µM; in the assay with PC-3 prostate it was 17 µM.

For the compound `Nc1nc(=S)c2[nH]cnc2[nH]1`, the GI50 was 0.37 µM and 0.421 µM and 0.96 µM in the assay on NCI/ADR-RES ovarian; 0.227 µM and 0.314 µM and 0.488 µM in the assay on CCRF-CEM leukemia; 4.13 µM with HS 578T breast; 0.368 µM and 0.488 µM in the assay on MOLT-4 leukemia; 0.43 µM and 0.823 µM and 0.488 µM in the assay with UO-31 renal; 0.336 µM in the assay on HCT-116 colon. Also, the GI50 in the assay with SK-MEL-2 melanoma is 0.741 µM and 1.7 µM and 3.7 µM; with A549 NSCLC, 2.29 µM and 4.7 µM and 5.85 µM; in the assay with CAKI-1 renal it was 0.264 µM and 0.345 µM and 0.888 µM; in the assay on PC-3 prostate, 1.28 µM and 3.35 µM and 2.83 µM. Also, the TGI is > 57.7 µM and 105 µM and 85.1 µM in the assay with A549 NSCLC; > 100 µM and 185 µM and > 250 µM with PC-3 prostate.

As for `C=C1CC/C=C(\C)CC[C@H](C(=C)C)[C@@H](O)/C=C(/CO)CCC1O` (some centres not stated), the GI50 in the assay with NCI/ADR-RES ovarian is over 100 µM; in the assay on CCRF-CEM leukemia, 24 µM; with HS 578T breast it was 42.5 µM; with MOLT-4 leukemia, 24 µM; in the assay with UO-31 renal it was 62.2 µM; in the assay on HCT-116 colon it was 35.4 µM. Further, the GI50 was over 100 µM in the assay with SK-MEL-2 melanoma, 74.4 µM with A549 NSCLC, 81.4 µM in the assay on CAKI-1 renal and 43.4 µM in the assay on PC-3 prostate. Moreover, the TGI in the assay with NCI/ADR-RES ovarian was over 100 µM; in the assay on CCRF-CEM leukemia it was 48.6 µM; in the assay with HS 578T breast it was over 100 µM; with MOLT-4 leukemia, 53.6 µM; in the assay with UO-31 renal, over 100 µM; in the assay with HCT-116 colon, over 100 µM. The TGI in the assay with SK-MEL-2 melanoma, in the assay on A549 NSCLC, in the assay on CAKI-1 renal and in the assay with PC-3 prostate was over 100 µM each time.

With `Cc1nc2c(Br)cc(Br)cc2c(=O)n1-c1ccccc1NC1OCC(O)C(O)C1O` (configuration not stated), the GI50 with NCI/ADR-RES ovarian was 43.3 µM and > 100 µM; with MOLT-4 leukemia, 19.5 µM and 3.5 µM; with A549 NSCLC, 34.8 µM and 10.1 µM. The TGI in the assay on NCI/ADR-RES ovarian is over 100 µM; with CCRF-CEM leukemia, 56.7 µM and > 56.5 µM; in the assay on HS 578T breast, over 100 µM; in the assay with MOLT-4 leukemia it was 61.1 µM and > 36.1 µM; with UO-31 renal, over 100 µM; with HCT-116 colon, 65.7 µM and 40.2 µM. Further, the TGI was over 100 µM in the assay with SK-MEL-2 melanoma; > 100 µM and 34.6 µM in the assay with A549 NSCLC; over 100 µM with CAKI-1 renal; over 100 µM in the assay on PC-3 prostate.
